Results from patent US7491819B1 (priority 2004, dated 2009).

target: T1, HIV-integrase (Human immunodeficiency virus type 1 group M subtype B, UniProt P12497); assay: HIV-Integrase Inhibition Activity (SPA bead strand-transfer assay); type: biochemical; conditions: Table 1; read-out: Activity (HIV-integrase inhibition, IC50 class)
T1 construct: Recombinant integrase (0.26 ng) was incubated with the beads
Outline: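 Biotin-labelled substrate DNA (5 pmole) bound to streptavidin SPA beads, preloaded with recombinant integrase (0.26 ng) for 90 min at 37° C, then washed. Inhibitors and 0.1 fmol P33-labelled target DNA added; reaction stopped with 10 mM EDTA. Integration read as scintillation CPM.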

| Compound | IC50 |
| --- | --- |
| CSc1cc(F)ccc1CNC(=O)c1nc2n(c(=O)c1O)CCOC2(C)C [Example 100, Pyrimido[2,1-c][1,4]oxazine-2-carboxamide, N-[[4-fluoro-2-(methylthio)phenyl]methyl]-4,6,7,9-tetrahydro-3-hydroxy-9,9-dimethyl-4-oxo-] | 2 to 100 nM |
| CC1(C)OCCn2c1nc(C(=O)NCc1ccc(Cl)cc1F)c(O)c2=O [Example 277, Pyrimido[2,1-c][1,4]oxazine-2-carboxamide, N-[(4-chloro-2-fluorophenyl)methyl]-4,6,7,9-tetrahydro-3-hydroxy-9,9-dimethyl-4-oxo-] | 2 to 100 nM |
| CNC(=O)c1cc(F)ccc1CNC(=O)c1nc2n(c(=O)c1O)CCOC2 [Example 3, Pyrimido[2,1-c][1,4]oxazine-2-carboxamide, N-[[4-fluoro-2-[(methylamino)carbonyl]phenyl]methyl]-4,6,7,9-tetrahydro-3-hydroxy-4-oxo-] | 2 to 100 nM |
| COc1cc(CNC(=O)c2nc3n(c(=O)c2O)CCOC3(C)C)ccc1O [Example 225, Pyrimido[2,1-c][1,4]oxazine-2-carboxamide, 4,6,7,9-tetrahydro-3-hydroxy-N-[(4-hydroxy-3-methoxyphenyl)methyl]-9,9-dimethyl-4-oxo-] | 2 to 100 nM |
| CC1(C)OCCn2c1nc(C(=O)NCc1ccc(F)cc1Br)c(O)c2=O [Example 59, Pyrimido[2,1-c][1,4]oxazine-2-carboxamide, N-[(2-bromo-4-fluorophenyl)methyl]-4,6,7,9-tetrahydro-3-hydroxy-9,9-dimethyl-4-oxo-] | 2 to 100 nM |
| CN(C)S(=O)(=O)c1cc(F)ccc1CNC(=O)c1nc2n(c(=O)c1O)CCCOC2(C)C [Example 204, 6H-Pyrimido[2,1-c][1,4]oxazepine-2-carboxamide, N-[[2-[(dimethylamino)sulfonyl]-4-fluorophenyl]methyl]-4,7,8,10-tetrahydro-3-hydroxy-10,10-dimethyl-4-oxo-] | 2 to 100 nM |
| Cc1cc(CNC(=O)c2nc3n(c(=O)c2O)CCCOC3(C)C)ccc1F [Example 45, 6H-Pyrimido[2,1-c][1,4]oxazepine-2-carboxamide, N-[(4-fluoro-3-methylphenyl)methyl]-4,7,8,10-tetrahydro-3-hydroxy-10,10-dimethyl-4-oxo-] | 2 to 100 nM |
| CC1(C)OCCn2c1nc(C(=O)NCc1ccc(Cl)cc1Cl)c(O)c2=O [Example 271, Pyrimido[2,1-c][1,4]oxazine-2-carboxamide, N-[(2,4-dichlorophenyl)methyl]-4,6,7,9-tetrahydro-3-hydroxy-9,9-dimethyl-4-oxo-] | 2 to 100 nM |
| CSc1ccccc1CNC(=O)c1nc2n(c(=O)c1O)CCOC2(C)C [Example 112, Pyrimido[2,1-c][1,4]oxazine-2-carboxamide, 4,6,7,9-tetrahydro-3-hydroxy-9,9-dimethyl-N-[[2-(methylthio)phenyl]methyl]-4-oxo-] | 2 to 100 nM |
| CC1(C)OCCn2c1nc(C(=O)NCc1ccccc1C1=CCCC1)c(O)c2=O [Example 200, Pyrimido[2,1-c][1,4]oxazine-2-carboxamide, N-[[2-(1-cyclopenten-1-yl)phenyl]methyl]-4,6,7,9-tetrahydro-3-hydroxy-9,9-dimethyl-4-oxo-] | 2 to 100 nM |
| CCC1(CC)OCCn2c1nc(C(=O)NCc1ccc(F)cc1S(=O)(=O)N(C)C)c(O)c2=O [Example 205, Pyrimido[2,1-c][1,4]oxazine-2-carboxamide, N-[[2-[(dimethylamino)sulfonyl]-4-fluorophenyl]methyl]-9,9-diethyl-4,6,7,9-tetrahydro-3-hydroxy-4-oxo-] | 2 to 100 nM |
| CSCCC1OCCn2c1nc(C(=O)NCc1ccc(F)cc1)c(O)c2=O (centres unmarked) [Example 208, Pyrimido[2,1-c][1,4]oxazine-2-carboxamide, N-[(4-fluorophenyl)methyl]-4,6,7,9-tetrahydro-3-hydroxy-9-[2-(methylthio)ethyl]-4-oxo-] | 2 to 100 nM |
| Cc1[nH]c2ccc(CNC(=O)c3nc4n(c(=O)c3O)CCOC4(C)C)cc2c1C [Example 144, Pyrimido[2,1-c][1,4]oxazine-2-carboxamide, N-[(2,3-dimethyl-1H-indol-5-yl)methyl]-4,6,7,9-tetrahydro-3-hydroxy-9,9-dimethyl-4-oxo-] | 100 to 1000 nM |
| CN(C)C(=O)c1ncn(-c2cc(F)ccc2CNC(=O)c2nc3n(c(=O)c2O)CCOC3(C)C)n1 [Example 63, Pyrimido[2,1-c][1,4]oxazine-2-carboxamide, N-[[2-[3-[(dimethylamino)carbonyl]-1H-1,2,4-triazol-1-yl]-4-fluorophenyl]methyl]-4,6,7,9-tetrahydro-3-hydroxy-9,9-dimethyl-4-oxo-] | 2 to 100 nM |
| CC1(C)OCCn2c1nc(C(=O)NCc1ccccc1-c1ccc(C(N)=O)cc1)c(O)c2=O [Example 173, Pyrimido[2,1-c][1,4]oxazine-2-carboxamide, N-[[4′-(aminocarbonyl)[1,1′-biphenyl]-2-yl]methyl]-4,6,7,9-tetrahydro-3-hydroxy-9,9-dimethyl-4-oxo-] | 2 to 100 nM |
| CC1(C)OCCn2c1nc(C(=O)NCc1ccccc1N1CCCCC1)c(O)c2=O [Example 254, Pyrimido[2,1-c][1,4]oxazine-2-carboxamide, 4,6,7,9-tetrahydro-3-hydroxy-9,9-dimethyl-4-oxo-N-[[2-(1-piperidinyl)phenyl]methyl]-] | 2 to 100 nM |
| COc1ccc(OC)c(CNC(=O)c2nc3n(c(=O)c2O)CCOC3(C)C)c1 [Example 235, Pyrimido[2,1-c][1,4]oxazine-2-carboxamide, N-[(2,5-dimethoxyphenyl)methyl]-4,6,7,9-tetrahydro-3-hydroxy-9,9-dimethyl-4-oxo-] | 2 to 100 nM |
| CC1(C)OCCn2c1nc(C(=O)NCc1ccccc1O)c(O)c2=O [Example 258, Pyrimido[2,1-c][1,4]oxazine-2-carboxamide, 4,6,7,9-tetrahydro-3-hydroxy-N-[(2-hydroxyphenyl)methyl]-9,9-dimethyl-4-oxo-] | 2 to 100 nM |
| CC1(C)OCCn2c1nc(C(=O)NCc1ccc(F)cc1-n1cnc(C(=O)O)n1)c(O)c2=O [Example 61, 1H-1,2,4-Triazole-3-carboxylic acid, 1-[5-fluoro-2-[[[(4,6,7,9-tetrahydro-3-hydroxy-9,9-dimethyl-4-oxopyrimido[2,1-c][1,4]oxazin-2-yl)carbonyl]amino]methyl]phenyl]-] | 2 to 100 nM |
| CN1CCN(c2cc(-c3ccccc3CNC(=O)c3nc4n(c(=O)c3O)CCOC4(C)C)ccn2)CC1 [Example 159, Pyrimido[2,1-c][1,4]oxazine-2-carboxamide, 4,6,7,9-tetrahydro-3-hydroxy-9,9-dimethyl-N-[[2-[2-(4-methyl-1-piperazinyl)-4-pyridinyl]phenyl]methyl]-4-oxo-] | 100 to 1000 nM |
| Cc1nnc(Nc2cc(F)ccc2CNC(=O)c2nc3n(c(=O)c2O)CCOC3(C)C)s1 [Example 116, Pyrimido[2,1-c][1,4]oxazine-2-carboxamide, N-[[4-fluoro-2-[(5-methyl-1,3,4-thiadiazol-2-yl)amino]phenyl]methyl]-4,6,7,9-tetrahydro-3-hydroxy-9,9-dimethyl-4-oxo-] | 2 to 100 nM |
| CC1(C)OCCn2c1nc(C(=O)NCc1ccc(F)cc1-c1cccnc1)c(O)c2=O [Example 75, Pyrimido[2,1-c][1,4]oxazine-2-carboxamide, N-[[4-fluoro-2-(3-pyridinyl)phenyl]methyl]-4,6,7,9-tetrahydro-3-hydroxy-9,9-dimethyl-4-oxo-] | 2 to 100 nM |
| CNC(=O)c1ncn(-c2cc(F)ccc2CNC(=O)c2nc3n(c(=O)c2O)CCOC3(C)C)n1 [Example 65, Pyrimido[2,1-c][1,4]oxazine-2-carboxamide, 4,6,7,9-tetrahydro-3-hydroxy-N-[(1R)-2-hydroxy-1-phenylethyl]-9,9-dimethyl-4-oxo-] | 2 to 100 nM |
| CC1(C)OCCn2c1nc(C(=O)NCc1ccccc1-c1ccc3c(c1)OCO3)c(O)c2=O [Example 187, Pyrimido[2,1-c][1,4]oxazine-2-carboxamide, N-[[2-(1,3-benzodioxol-5-yl)phenyl]methyl]-4,6,7,9-tetrahydro-3-hydroxy-9,9-dimethyl-4-oxo-] | 2 to 100 nM |
| CCC1(CC)OCCn2c1nc(C(=O)NCc1ccc(F)cc1)c(O)c2=O [Example 42, Pyrimido[2,1-c][1,4]oxazine-2-carboxamide, 9,9-diethyl-N-[(4-fluorophenyl)methyl]-4,6,7,9-tetrahydro-3-hydroxy-4-oxo-] | 2 to 100 nM |
| CC1(C)OCCn2c1nc(C(=O)NCc1cccc(F)c1N1CCCCS1(=O)=O)c(O)c2=O [Example 55, Pyrimido[2,1-c][1,4]oxazine-2-carboxamide, N-[[3-fluoro-2-(tetrahydro-1,1-dioxido-2H-1,2-thiazin-2-yl)phenyl]methyl]-4,6,7,9-tetrahydro-3-hydroxy-9,9-dimethyl-4-oxo-] | 2 to 100 nM |
| COc1ncc(-c2ccccc2CNC(=O)c2nc3n(c(=O)c2O)CCOC3(C)C)cc1Cl [Example 193, Pyrimido[2,1-c][1,4]oxazine-2-carboxamide, N-[[2-(5-chloro-6-methoxy-3-pyridinyl)phenyl]methyl]-4,6,7,9-tetrahydro-3-hydroxy-9,9-dimethyl-4-oxo-] | 2 to 100 nM |
| CC1(C)OCCn2c1nc(C(=O)NCc1ccc(F)cc1-n1ccnc1)c(O)c2=O [Example 53, Pyrimido[2,1-c][1,4]oxazine-2-carboxamide, N-[[4-fluoro-2-(1H-imidazol-1-yl)phenyl]methyl]-4,6,7,9-tetrahydro-3-hydroxy-9,9-dimethyl-4-oxo-] | 2 to 100 nM |
| CN1CCN(C(=O)c2ncn(-c3cc(F)ccc3CNC(=O)c3nc4n(c(=O)c3O)CCOC4(C)C)n2)CC1 [Example 69, Pyrimido[2,1-c][1,4]oxazine-2-carboxamide, N-[[4-fluoro-2-[3-[(4-methyl-1-piperazinyl)carbonyl]-1H-1,2,4-triazol-1-yl]phenyl]methyl]-4,6,7,9-tetrahydro-3-hydroxy-9,9-dimethyl-4-oxo-] | 2 to 100 nM |
